From ChEMBL document CHEMBL1201862, “PubChem BioAssay data set” (2004)
Calls of active or inactive are those of the source.

How the values were obtained:
[1] = biological target: Glycogen synthase kinase-3 beta (Homo sapiens, UniProt P49841); experiment: Inhibition of Human GSK-3 beta Activity Measured in Biochemical System Using Microfluidics - 2063-05_Inhibitor_Dose_DryPowder_Activity_Set2. [Related pubchem assays (depositor defined):AID2709]
[2] = biological target: T1, Aryl hydrocarbon receptor (Homo sapiens, UniProt P35869); experiment: Luminescence-based cell-based high throughput dose response assay for activators of the Aryl Hydrocarbon Receptor (AHR). [Related pubchem assays: 2796 (Primary screen (AHR activators in singlicate)), 2845 (Confirmation screen (AHR activators in triplicate)), 434939 (Counterscreen (PXR activators in triplicate)), 2804 (Summary (AHR activators))]; type: ADME
T1 sequence (P35869 whole entry): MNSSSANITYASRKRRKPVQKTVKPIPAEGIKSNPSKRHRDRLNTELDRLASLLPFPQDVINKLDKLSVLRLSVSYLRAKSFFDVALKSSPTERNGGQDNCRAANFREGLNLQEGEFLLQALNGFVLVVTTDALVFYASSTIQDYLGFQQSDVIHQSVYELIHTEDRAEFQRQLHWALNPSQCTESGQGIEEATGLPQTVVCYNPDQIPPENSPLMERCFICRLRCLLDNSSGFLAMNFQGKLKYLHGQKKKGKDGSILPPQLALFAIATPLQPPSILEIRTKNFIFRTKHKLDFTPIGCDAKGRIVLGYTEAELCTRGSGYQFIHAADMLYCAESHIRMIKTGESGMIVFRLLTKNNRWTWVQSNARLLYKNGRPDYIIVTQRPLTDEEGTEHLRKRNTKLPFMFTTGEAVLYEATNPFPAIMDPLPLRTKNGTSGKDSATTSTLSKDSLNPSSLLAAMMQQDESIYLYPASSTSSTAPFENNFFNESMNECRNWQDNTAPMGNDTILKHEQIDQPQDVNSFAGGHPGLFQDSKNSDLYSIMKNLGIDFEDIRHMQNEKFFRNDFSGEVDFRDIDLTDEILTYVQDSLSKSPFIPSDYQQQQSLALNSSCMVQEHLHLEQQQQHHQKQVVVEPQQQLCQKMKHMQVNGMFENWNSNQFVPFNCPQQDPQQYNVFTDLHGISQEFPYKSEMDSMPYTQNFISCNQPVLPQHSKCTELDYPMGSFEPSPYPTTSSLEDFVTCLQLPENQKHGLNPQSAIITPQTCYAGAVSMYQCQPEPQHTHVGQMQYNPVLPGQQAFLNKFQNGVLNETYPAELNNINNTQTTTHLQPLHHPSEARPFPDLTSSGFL

[3] = alpha-synuclein stem-loop luciferase translation blockers – H4 neuroglioma cells, luminescence, confirmation (AID 1988); type: functional, cell-based
[4] = Luminescence Cell-Based Dose Response HTS to Identify Inhibitors of 5'UTR Stem-Loop Driven Prion Protein mRNA Translation in H4 Neuroglioblastoma Cells. [Related pubchem assays: 1827 (Project Summary), 1813 (Primary HTS)]; type: functional
[5] = luciferase reporter signal suppression in cells – H4 neuroglioma cells, luminescence, dose response (AID 1990); type: functional, cell-based
[6] = biological target: Glycogen synthase kinase-3 alpha (Homo sapiens, UniProt P49840); experiment: Inhibition of Human GSK-3 alpha Activity Measured in Biochemical System Using Microfluidics - 2063-06_Inhibitor_Dose_DryPowder_Activity_Set2. [Related pubchem assays (depositor defined):AID2709]
Glycogen synthase kinase-3 alpha, sequence (P49840 whole entry): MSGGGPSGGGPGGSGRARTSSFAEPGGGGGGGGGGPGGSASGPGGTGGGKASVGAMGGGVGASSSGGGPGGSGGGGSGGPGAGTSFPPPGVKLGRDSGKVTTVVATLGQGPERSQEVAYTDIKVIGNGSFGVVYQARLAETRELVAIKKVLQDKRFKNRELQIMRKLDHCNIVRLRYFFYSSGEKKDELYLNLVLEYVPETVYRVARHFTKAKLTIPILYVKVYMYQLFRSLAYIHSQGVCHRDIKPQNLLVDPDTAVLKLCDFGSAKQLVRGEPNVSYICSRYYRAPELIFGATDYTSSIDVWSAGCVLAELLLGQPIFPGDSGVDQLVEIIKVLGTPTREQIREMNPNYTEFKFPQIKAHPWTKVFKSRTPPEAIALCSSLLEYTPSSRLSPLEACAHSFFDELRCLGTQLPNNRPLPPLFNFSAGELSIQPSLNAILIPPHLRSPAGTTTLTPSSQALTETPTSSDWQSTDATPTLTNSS

[7] = biological target: Cyclin-dependent kinase 5/CDK5 activator 1 (Homo sapiens, UniProt Q00535); experiment: human CDK5 activity blockade – biochemical, microfluidic mobility shift, dry powder, selectivity assay for GSK-3 alpha inhibitor project, dose response (AID 588430)
Cyclin-dependent kinase 5/CDK5 activator 1, sequence (Q00535 whole entry): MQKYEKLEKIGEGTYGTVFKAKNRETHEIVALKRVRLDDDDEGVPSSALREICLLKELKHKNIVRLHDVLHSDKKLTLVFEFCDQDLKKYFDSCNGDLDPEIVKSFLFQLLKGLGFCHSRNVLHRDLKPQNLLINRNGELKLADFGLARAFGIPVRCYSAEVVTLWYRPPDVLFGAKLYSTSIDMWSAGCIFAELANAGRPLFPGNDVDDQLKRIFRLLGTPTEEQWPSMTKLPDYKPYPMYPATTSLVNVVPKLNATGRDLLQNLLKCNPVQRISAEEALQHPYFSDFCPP
Cyclin-dependent kinase 5/CDK5 activator 1, sequence (Q15078 whole entry, further chain): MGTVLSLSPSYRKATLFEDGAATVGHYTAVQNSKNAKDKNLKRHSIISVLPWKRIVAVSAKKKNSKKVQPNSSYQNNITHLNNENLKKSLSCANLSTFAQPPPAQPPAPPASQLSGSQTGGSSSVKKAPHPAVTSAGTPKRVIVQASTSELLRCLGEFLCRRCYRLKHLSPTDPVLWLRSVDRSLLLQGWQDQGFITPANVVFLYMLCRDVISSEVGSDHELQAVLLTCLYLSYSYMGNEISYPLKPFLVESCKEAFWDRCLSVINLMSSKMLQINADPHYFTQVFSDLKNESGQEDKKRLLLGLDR

[8] = A High Throughput Confirmatory Assay used to Identify Novel Compounds that Inhibit Mycobacterium Tuberculosis in the absence of Glycerol using Purified and Synthesized Compounds (3).; type: functional
[9] = M. tuberculosis growth inhibition in 7H9, dose response, 7H9 media, purified and synthesized samples, set 3 (AID 504646); type: functional
[10] = biological target: T2, Neuropeptides B/W receptor type 1 (Homo sapiens, UniProt P48145); experiment: human NPBW1 receptor blockade, IC50 – cell-based, fluorescence, dose response, set 5, late-stage follow-up (AID 588566); type: functional
T2 sequence (P48145 whole entry): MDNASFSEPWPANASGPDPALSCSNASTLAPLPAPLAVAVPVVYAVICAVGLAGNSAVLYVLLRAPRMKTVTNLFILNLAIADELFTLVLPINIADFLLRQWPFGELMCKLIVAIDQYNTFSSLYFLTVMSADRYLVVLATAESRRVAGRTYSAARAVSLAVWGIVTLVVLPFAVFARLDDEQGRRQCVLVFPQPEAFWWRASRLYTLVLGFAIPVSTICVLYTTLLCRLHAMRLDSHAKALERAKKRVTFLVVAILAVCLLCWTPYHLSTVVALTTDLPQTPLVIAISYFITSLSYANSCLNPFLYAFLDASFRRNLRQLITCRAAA

[11] = biological target: T3, Melanin-concentrating hormone receptor 1 (Homo sapiens, UniProt Q99705); experiment: Late-stage fluorescence-based counterscreen for antagonists of the G-protein coupled receptor 7 (GPR7): cell-based dose response assay to identify antagonists of the melanin-concentrating hormone receptor 1 (MCHR1) Set 5.; type: functional
T3 sequence (Q99705 whole entry): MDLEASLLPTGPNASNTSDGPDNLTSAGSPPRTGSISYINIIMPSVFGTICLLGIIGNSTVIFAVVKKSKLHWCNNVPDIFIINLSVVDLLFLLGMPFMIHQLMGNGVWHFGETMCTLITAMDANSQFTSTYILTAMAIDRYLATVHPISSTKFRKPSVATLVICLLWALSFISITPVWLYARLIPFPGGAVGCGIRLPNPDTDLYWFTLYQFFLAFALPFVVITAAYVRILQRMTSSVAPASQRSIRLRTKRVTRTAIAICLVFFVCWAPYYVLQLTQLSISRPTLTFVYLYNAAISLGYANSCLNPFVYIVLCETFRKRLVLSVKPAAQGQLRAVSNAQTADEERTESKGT

[12] = biological target: T3, Melanin-concentrating hormone receptor 1; experiment: Late-stage fluorescence-based counterscreen for antagonists of the G-protein coupled receptor 7 (GPR7): cell-based dose response assay to identify antagonists of the melanin-concentrating hormone receptor 1 (MCHR1) Set 6.; type: functional
[13] = biological target: T2, Neuropeptides B/W receptor type 1; experiment: human NPBW1 receptor blockade, IC50 – cell-based, fluorescence, dose response, set 6, late-stage follow-up (AID 588583); type: functional
[14] = biological target: DNA dC->dU-editing enzyme APOBEC-3G (Homo sapiens, UniProt Q9HC16); experiment: inhibition of APOBEC3G ssDNA deamination – biochemical, fluorescence, single-stranded DNA substrate, SAR follow-up (AID 602136); type: functional; settings: read-out: IC50_Mean
DNA dC->dU-editing enzyme APOBEC-3G, sequence (Q9HC16 whole entry): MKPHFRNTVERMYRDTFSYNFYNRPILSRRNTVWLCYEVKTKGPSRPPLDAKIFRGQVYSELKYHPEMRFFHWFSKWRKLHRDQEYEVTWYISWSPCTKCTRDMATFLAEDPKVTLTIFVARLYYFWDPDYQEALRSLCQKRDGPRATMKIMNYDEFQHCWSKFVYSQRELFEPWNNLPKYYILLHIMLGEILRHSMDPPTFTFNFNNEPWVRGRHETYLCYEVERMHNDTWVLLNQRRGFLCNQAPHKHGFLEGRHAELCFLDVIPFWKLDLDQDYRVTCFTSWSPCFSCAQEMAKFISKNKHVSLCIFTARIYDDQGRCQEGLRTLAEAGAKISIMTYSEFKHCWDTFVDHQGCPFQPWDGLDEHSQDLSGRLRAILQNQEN

[15] = biological target: DNA dC->dU-editing enzyme APOBEC-3A (Homo sapiens, UniProt P31941); experiment: SAR analysis of small molecule inhibitors of APOBEC3A DNA Deaminase via a fluorescence-based single-stranded DNA deaminase assay.; type: functional; settings: read-out: IC50_Mean
DNA dC->dU-editing enzyme APOBEC-3A, sequence (P31941 whole entry): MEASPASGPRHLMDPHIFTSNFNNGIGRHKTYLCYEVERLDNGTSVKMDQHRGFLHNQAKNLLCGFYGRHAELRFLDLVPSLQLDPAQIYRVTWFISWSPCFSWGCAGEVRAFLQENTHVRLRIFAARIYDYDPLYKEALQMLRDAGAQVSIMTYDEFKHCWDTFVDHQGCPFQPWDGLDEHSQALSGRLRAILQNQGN

[16] = biological target: T4, High affinity choline transporter 1 (Homo sapiens, UniProt Q9GZV3); experiment: human choline transporter blockers, potency – cell-based, 10-point CRC, membrane potential dye, dose response (AID 588401); type: functional;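 further: membrane potential dye fluorescence of choline-evoked depolarization via CHT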
T4 sequence (Q9GZV3 whole entry): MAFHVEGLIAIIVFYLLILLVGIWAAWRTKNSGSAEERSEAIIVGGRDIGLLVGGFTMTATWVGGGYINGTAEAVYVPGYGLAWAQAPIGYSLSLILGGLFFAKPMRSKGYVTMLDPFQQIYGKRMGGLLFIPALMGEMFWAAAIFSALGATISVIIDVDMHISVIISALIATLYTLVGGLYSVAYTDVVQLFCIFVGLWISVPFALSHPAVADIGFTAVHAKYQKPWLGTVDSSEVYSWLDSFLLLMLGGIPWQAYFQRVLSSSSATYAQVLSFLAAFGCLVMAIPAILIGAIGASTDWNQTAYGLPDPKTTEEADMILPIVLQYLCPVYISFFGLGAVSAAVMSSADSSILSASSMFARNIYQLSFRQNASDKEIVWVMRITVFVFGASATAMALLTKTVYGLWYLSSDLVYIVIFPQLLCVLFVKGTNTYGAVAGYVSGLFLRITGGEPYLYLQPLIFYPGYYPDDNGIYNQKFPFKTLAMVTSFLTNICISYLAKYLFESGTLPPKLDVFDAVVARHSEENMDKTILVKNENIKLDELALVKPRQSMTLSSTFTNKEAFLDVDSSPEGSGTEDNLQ

[17] = biological target: T4, High affinity choline transporter 1; experiment: human choline transporter blockers, potency – cell-based, 5-point CRC, membrane potential dye, dose response (AID 504840); type: functional

Glycogen synthase kinase-3 beta, sequence (P49841 whole entry): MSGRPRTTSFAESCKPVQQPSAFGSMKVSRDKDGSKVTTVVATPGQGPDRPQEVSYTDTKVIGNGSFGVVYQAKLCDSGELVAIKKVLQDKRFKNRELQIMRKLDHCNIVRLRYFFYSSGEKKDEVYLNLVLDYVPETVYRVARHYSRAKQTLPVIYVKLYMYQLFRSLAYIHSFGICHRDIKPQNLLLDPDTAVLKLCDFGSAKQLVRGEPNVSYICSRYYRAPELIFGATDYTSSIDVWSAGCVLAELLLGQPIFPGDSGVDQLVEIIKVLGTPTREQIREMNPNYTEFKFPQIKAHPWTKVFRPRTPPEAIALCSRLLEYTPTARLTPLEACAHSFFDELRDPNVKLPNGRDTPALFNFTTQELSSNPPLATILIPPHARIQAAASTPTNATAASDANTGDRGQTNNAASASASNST

COc1ccccc1Nc1nc(NCCO)nc(N)c1[N+](=O)[O-]
AC50 [1]: 0.134 µM (active)
EC50 [2]: 1.2 µM (active)
EC50 [3]: 11.3 µM (active)
EC50 [4]: 0.118 µM (active)
EC50 [5]: 10.9 µM (active)
AC50 [6]: 0.276 µM (active)
AC50 [7]: 6.14 µM (active)

O=C(c1ccc(CNc2c(N3CCCC3)c(=O)c2=O)cc1)N1CCN(C2CCCCC2)CC1
IC50 [8]: > 25 µM (active)
IC50 [9]: > 25 µM (active)

COc1ccc(Oc2c(Cl)cnn(Cc3ccc4c(c3)C(=O)c3ccccc3C4=O)c2=O)cc1
IC50 [10]: > 20 µM (inactive)
IC50 [11]: > 20 µM (inactive)

Cc1ccc(C)c(C(C#N)c2c(Cl)cnn(Cc3cccc4ccccc34)c2=O)c1 (configuration not stated)
IC50 [12]: 3.14 µM (active)
IC50 [13]: 3.14 µM (active)

COc1ccc2c(Cl)c(-c3nnc4n3CCC4)sc2c1
IC50 [14]: > 99 µM (inactive)
IC50 [15]: > 99 µM (inactive)

C=CCc1ccc(O)c(-c2cc(CC=C)ccc2O)c1 [MAGNOLOL]
IC50 [16]: 1.7 µM (active)
IC50 [17]: 2.89 µM (active)
